These are literature values, as cited in article doi:10.1101/2023.11.06.565863v1 (bioRxiv, 2023).

Data set [1] has as its system R1441C-LRRK2 MEFs.
In data set [2] the test system is R1441C-LRRK2 MEFs. The source holds these as a separate data set.

For `C[C@@H]1CN(c2cc(-c3n[nH]c4ccc(OC5(C)CC5)cc34)ncn2)C[C@H](C)O1` [MLi2], the “Ciliogenesis defects of R1441C-LRRK2 MEFs vs littermate wildtype MEFs” value in the data set with R1441C-LRRK2 MEFs [1] is listed as “reverted”. For the same compound, the “Centrosome cohesion defects of R1441C-LRRK2 MEFs vs littermate wildtype MEFs” value with R1441C-LRRK2 MEFs [2] is given as “reverted”.
